The text below walks through data of ChEMBL document CHEMBL5465560, “Selectivity Literature for EUbOPEN Chemogenomic Library” (2024).

Assay [1] deals with Bone morphogenetic protein receptor type-1B (Homo sapiens, UniProt O00238). The experiment in a line: Selectivity interaction (KinomeScan (DiscoverX)) EUB0001619a BMPR1B. The note with it: at 1 µM.
Assay [2] concerns the target Serine/threonine-protein kinase B-raf (Homo sapiens) (UniProt P15056). Conditions: at 10 µM.
For assay [3], the target named is Serine/threonine-protein kinase Nek6 (Homo sapiens) (UniProt Q9HC98). As to the kind of experiment: Selectivity interaction (KinomeScan (DiscoverX)) EUB0000695a NEK6. Conditions: at 100 nM.
In assay [4] the target is Serine/threonine-protein kinase MARK1 (Homo sapiens) (UniProt Q9P0L2). As to the kind of experiment: Selectivity interaction (ActivX KiNativ screen (kinase selectivity in THP-1 cell lysates)) EUB0000639a MARK1. The assay is classed as subcellular. The note with it: lysate.
Serine/threonine-protein kinase MARK1 (Homo sapiens), sequence (Q9P0L2 whole entry, looked up): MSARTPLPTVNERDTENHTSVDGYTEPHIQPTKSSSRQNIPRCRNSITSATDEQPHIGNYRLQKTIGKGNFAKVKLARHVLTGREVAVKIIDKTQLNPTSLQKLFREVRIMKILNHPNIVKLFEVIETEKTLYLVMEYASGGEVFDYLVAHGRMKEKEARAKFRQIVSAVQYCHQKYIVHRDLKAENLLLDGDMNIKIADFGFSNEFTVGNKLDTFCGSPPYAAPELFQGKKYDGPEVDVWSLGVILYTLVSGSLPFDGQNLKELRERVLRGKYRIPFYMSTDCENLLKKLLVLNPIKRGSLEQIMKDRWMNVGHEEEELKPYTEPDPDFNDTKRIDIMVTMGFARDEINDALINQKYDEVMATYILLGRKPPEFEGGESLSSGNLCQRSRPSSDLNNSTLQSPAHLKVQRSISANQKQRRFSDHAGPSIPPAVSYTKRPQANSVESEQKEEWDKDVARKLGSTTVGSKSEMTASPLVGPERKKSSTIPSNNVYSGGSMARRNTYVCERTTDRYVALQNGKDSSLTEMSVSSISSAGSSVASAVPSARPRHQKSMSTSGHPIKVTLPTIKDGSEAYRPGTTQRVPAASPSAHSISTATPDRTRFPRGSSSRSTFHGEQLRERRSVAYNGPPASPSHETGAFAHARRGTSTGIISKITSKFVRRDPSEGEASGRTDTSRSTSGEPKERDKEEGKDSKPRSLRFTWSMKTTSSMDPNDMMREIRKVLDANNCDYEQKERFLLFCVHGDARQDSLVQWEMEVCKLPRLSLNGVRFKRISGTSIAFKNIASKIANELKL
The target in assay [5] is T1, Phosphatidylinositol 5-phosphate 4-kinase type-2 alpha (Homo sapiens) (UniProt P48426).
T1 sequence (whole entry): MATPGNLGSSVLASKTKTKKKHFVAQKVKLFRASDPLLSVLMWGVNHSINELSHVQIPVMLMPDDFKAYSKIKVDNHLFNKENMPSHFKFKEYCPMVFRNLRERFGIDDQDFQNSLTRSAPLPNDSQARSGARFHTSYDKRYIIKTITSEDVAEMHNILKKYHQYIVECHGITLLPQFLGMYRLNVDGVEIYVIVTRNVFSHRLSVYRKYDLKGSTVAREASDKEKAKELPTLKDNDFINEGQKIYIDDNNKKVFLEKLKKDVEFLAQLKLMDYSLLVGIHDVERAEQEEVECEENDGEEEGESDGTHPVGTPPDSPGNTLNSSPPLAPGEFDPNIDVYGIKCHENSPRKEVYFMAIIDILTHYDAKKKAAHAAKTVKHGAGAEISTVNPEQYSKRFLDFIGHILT
The experiment in a line: Selectivity interaction (ActivX KiNativ screen (kinase selectivity in THP-1 cell lysates)) EUB0000639a PIP4K2A. The note with it: lysate. Format: subcellular.

For assay [6], the target named is Sigma non-opioid intracellular receptor 1 (Homo sapiens) (UniProt Q99720). The experiment in a line: Selectivity interaction (GPCR panel (PDSP screen)) EUB0000311b SIGMAR1. The note with it: at 10 µM.
Sigma non-opioid intracellular receptor 1 (Homo sapiens), sequence (Q99720 whole entry): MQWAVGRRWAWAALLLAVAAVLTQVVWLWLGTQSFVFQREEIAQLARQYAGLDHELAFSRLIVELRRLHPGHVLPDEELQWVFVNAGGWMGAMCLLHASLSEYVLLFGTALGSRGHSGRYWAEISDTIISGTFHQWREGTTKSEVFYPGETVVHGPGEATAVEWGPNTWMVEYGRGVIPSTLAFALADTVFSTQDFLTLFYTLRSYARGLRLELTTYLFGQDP
Assay [7] addresses Tyrosine-protein kinase ABL2 (Homo sapiens, UniProt P42684). As to the kind of experiment: Selectivity interaction (Ambit KINOMEscan and KiNATiv profiling in Jurkat cells) EUB0000090b ABL2. Format: cell-based. Conditions: at 1 µM.
Assay [8] concerns the target Tyrosine-protein kinase CSK (Homo sapiens) (UniProt P41240). The experiment in a line: Selectivity interaction (Ambit KINOMEscan and KiNATiv profiling in Jurkat cells) EUB0000090b CSK. The assay is classed as cell-based. The note with it: at 1 µM.
For assay [9], the target named is T2, Serine/threonine-protein kinase Sgk1 (Homo sapiens) (UniProt O00141).
T2 sequence (whole entry): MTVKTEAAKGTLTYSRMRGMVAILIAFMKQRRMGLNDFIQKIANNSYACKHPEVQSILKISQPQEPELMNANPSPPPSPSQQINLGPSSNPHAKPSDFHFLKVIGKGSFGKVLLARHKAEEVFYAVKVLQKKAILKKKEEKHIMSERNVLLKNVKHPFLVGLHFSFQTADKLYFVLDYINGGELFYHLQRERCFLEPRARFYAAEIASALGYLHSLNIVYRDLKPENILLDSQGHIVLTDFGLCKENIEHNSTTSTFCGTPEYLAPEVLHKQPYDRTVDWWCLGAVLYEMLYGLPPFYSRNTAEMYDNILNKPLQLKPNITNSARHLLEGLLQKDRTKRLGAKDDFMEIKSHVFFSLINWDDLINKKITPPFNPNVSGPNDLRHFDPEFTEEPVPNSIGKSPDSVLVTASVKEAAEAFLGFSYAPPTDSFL
The experiment in a line: Selectivity interaction (Ambit KINOMEscan and KiNATiv profiling in Jurkat cells) EUB0000090b SGK1. Format: cell-based. The note with it: at 1 µM.

In assay [10] the target is Serine/threonine-protein kinase/endoribonuclease IRE1 (Homo sapiens) (UniProt O75460). As to the kind of experiment: Selectivity interaction (KinomeScan (DiscoverX)) EUB0001049a ERN1. The note with it: at 1 µM.
Serine/threonine-protein kinase/endoribonuclease IRE1 (Homo sapiens), sequence (O75460 19-977 limits assumed): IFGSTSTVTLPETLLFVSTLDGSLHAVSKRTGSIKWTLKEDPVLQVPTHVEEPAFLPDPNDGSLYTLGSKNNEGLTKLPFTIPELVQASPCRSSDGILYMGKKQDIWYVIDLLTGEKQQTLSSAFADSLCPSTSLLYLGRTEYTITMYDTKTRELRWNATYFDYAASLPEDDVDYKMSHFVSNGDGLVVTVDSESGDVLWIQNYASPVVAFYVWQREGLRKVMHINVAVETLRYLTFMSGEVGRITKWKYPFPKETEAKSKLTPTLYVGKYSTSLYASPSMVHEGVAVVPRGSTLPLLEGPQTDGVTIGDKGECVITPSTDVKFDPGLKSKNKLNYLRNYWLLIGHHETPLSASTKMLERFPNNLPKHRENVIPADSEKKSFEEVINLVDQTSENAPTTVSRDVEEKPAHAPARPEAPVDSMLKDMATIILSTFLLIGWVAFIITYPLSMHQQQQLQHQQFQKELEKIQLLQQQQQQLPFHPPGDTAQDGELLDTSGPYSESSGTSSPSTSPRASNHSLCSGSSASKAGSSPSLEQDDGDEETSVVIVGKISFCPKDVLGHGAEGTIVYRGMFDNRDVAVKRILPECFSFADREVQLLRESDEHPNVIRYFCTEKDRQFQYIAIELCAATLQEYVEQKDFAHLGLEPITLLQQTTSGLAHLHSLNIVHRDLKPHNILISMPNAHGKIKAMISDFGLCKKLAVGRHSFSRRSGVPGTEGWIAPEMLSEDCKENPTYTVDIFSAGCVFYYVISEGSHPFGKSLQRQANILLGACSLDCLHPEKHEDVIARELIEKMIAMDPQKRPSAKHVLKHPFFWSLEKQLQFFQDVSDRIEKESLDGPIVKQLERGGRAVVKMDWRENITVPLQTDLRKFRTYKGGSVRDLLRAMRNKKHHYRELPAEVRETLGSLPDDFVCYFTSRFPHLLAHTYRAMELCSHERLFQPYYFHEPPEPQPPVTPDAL
The target in assay [11] is Fibroblast growth factor receptor 1 (Homo sapiens, UniProt P11362). The experiment in a line: Selectivity interaction (KinomeScan (DiscoverX)) EUB0000655a FGFR1. Conditions: at 10 µM.
Assay [12] deals with Calcium/calmodulin-dependent protein kinase kinase 2 (Homo sapiens) (UniProt Q96RR4). As to the kind of experiment: Selectivity interaction (KinomeScan (DiscoverX)) EUB0000092b CAMKK2. The note with it: at 10 µM.
Calcium/calmodulin-dependent protein kinase kinase 2 (Homo sapiens), sequence (Q96RR4 2-588 limits assumed): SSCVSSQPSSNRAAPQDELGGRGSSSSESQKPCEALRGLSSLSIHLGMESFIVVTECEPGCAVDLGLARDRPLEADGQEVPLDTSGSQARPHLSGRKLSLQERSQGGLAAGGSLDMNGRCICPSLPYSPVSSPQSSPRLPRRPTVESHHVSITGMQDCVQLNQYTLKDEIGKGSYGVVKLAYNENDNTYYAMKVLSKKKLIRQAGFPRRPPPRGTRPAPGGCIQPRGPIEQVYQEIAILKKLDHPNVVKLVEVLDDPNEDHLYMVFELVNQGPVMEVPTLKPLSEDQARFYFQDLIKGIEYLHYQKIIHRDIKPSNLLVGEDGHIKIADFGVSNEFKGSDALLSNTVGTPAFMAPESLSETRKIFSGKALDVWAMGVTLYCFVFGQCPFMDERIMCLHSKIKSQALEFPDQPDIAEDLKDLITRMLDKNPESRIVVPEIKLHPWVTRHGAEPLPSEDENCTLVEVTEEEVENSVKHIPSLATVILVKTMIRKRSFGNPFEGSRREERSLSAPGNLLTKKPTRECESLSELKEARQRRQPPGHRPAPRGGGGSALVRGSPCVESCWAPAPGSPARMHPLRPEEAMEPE
The target in assay [13] is Sodium-dependent serotonin transporter (Homo sapiens, UniProt P31645). The experiment in a line: Selectivity interaction (Panel of kinases, GPCRs, ion channels and transporters (enzymatic assay)) EUB0000266bCl SLC6A4.
Sodium-dependent serotonin transporter, sequence (P31645 whole entry, looked up): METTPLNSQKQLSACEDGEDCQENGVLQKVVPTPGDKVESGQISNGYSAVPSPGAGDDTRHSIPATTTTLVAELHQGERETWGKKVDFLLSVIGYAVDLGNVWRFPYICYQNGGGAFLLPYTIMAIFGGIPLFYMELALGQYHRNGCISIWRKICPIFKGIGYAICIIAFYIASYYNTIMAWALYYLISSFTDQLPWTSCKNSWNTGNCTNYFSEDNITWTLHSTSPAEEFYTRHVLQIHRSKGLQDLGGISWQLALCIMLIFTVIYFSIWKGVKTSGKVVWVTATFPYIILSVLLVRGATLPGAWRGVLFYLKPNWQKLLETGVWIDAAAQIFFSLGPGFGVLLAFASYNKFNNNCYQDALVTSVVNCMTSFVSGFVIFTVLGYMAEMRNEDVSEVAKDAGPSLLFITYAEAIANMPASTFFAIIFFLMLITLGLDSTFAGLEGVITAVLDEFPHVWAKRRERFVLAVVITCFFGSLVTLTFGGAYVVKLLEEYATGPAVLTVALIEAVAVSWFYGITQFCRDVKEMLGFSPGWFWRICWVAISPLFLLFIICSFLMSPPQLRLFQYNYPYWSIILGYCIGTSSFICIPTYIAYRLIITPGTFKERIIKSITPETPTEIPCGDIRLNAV
For assay [14], the target named is Ribosomal protein S6 kinase alpha-2 (Homo sapiens) (UniProt Q15349). The experiment in a line: Selectivity interaction (Kinome Scan (DiscoverX)) EUB0000229b RPS6KA2. The note with it: at 10 µM.
Assay [15] concerns the target T3, Scaffold protein ILK (Homo sapiens) (UniProt Q13418).
T3 sequence (whole entry): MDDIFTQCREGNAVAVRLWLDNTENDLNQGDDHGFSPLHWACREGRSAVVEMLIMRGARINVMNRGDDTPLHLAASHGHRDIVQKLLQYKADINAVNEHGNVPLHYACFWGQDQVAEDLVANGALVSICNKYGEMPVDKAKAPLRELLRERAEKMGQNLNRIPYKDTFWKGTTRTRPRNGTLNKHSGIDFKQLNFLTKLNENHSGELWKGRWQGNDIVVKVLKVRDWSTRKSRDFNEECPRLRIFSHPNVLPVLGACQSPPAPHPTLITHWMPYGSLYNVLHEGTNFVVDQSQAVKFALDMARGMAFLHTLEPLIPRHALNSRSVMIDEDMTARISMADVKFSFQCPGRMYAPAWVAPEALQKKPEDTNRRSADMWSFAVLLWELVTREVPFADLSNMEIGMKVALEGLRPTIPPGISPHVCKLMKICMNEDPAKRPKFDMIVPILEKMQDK
As to the kind of experiment: Selectivity interaction (Kinase panel (KiNativ target engagement assay in Jurkat cells)) EUB0001635a ILK. The assay is classed as cell-based. The note with it: Selectivity number of off-targets 0.0, Selectivity number of targets 233.0, Source Knowledge https://www.sciencedirect.com/science/article/pii/S2451945619300674?via%3Dihub, at 1 µM.

Tyrosine-protein kinase CSK (Homo sapiens), sequence (P41240 2-450 limits assumed): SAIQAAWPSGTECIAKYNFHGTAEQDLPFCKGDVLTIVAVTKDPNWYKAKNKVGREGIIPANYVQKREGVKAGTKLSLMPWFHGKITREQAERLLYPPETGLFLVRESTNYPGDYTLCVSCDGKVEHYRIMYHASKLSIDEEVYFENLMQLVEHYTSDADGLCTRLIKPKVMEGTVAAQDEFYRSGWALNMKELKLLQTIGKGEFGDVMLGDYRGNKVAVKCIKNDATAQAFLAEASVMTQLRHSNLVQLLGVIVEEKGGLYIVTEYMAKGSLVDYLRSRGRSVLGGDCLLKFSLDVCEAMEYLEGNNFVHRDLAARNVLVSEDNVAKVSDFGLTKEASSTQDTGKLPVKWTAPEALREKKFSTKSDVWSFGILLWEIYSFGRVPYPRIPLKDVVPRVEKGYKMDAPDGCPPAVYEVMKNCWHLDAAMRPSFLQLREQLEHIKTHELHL
Bone morphogenetic protein receptor type-1B, sequence (O00238 whole entry): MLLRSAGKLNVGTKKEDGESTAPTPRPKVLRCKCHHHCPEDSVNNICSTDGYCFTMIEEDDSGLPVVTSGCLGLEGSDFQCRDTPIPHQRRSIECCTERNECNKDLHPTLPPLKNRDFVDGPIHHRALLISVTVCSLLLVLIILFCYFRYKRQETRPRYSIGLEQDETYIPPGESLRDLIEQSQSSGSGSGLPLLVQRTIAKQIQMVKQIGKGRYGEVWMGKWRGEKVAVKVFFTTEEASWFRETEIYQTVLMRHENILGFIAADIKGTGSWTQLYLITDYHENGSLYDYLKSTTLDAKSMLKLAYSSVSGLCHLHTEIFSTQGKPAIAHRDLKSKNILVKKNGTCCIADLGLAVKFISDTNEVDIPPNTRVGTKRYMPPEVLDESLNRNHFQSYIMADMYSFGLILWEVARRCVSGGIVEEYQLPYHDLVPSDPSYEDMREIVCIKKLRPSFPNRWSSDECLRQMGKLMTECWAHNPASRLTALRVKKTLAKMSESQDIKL
Serine/threonine-protein kinase B-raf (Homo sapiens), sequence (P15056 whole entry): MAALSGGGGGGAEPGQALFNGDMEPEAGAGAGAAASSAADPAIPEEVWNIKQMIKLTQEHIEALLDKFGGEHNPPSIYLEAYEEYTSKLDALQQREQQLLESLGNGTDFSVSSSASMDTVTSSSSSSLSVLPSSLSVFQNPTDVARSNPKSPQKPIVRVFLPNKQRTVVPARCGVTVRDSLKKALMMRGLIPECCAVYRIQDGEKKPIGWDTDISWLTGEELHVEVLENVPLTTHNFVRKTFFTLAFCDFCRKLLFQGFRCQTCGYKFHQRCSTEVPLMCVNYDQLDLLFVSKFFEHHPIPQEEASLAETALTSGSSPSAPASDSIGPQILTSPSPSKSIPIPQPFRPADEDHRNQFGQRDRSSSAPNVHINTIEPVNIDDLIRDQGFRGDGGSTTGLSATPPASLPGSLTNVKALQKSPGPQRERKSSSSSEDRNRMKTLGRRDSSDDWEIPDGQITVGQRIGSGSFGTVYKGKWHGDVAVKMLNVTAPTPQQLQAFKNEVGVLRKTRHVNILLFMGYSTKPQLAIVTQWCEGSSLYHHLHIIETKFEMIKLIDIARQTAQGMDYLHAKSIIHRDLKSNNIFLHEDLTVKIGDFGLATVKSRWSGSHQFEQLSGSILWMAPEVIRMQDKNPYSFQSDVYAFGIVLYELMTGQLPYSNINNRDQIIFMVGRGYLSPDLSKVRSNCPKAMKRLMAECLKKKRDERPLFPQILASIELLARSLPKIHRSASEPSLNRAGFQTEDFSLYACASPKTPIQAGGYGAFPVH

The compound `N#Cc1cccc(-c2c[nH]c3ncnc(N4CCOCC4)c23)c1` displayed a % of control in assay [1] of 31%.
The compound `CCN(CC)CCCCNc1ncc2cc(-c3cc(OC)cc(OC)c3)c(NC(=O)NC(C)(C)C)nc2n1` gave a % of control in assay [2] of 100%.
On to `Cc1cc(F)c(C(=O)Nc2cccc(-c3nncn3C(C)C)n2)cc1-n1cnc(C2CC2)c1`, for which the % of control in [3] is 100%.
Turning to `CC[C@@H]1[C@H](F)C(=O)N[C@@H]1COc1nccc2cc(C(N)=O)c(OC)cc12` [ZIMLOVISERTIB], the % of inhibition in assay [4] (at 0.01 µM) is -5.4%; in [4] (at 0.04 µM), 8.3%; in assay [4] (at 0.2 µM), 8.4%; in assay [4] (at 1 µM), 26.6%; in assay [4] (at 5 µM), 51.5%; in assay [5] (at 0.01 µM), -3.1%. Besides, the % of inhibition in [5] (at 0.04 µM) was 1.9%; in assay [5] (at 0.2 µM), -7.7%; in assay [5] (at 1 µM), -0.6%; in assay [5] (at 5 µM) it was -9%.
For `CCc1ccccc1C(=O)Nc1n[nH]c2c(C)c(F)c(C3C(C#N)=C(C)N(C)C(C)=C3C#N)cc12` [BAY-3827], the % of inhibition in assay [6] is 30.5%.
For `CN(C)C/C=C/C(=O)Nc1ccc(C(=O)N2CCCC(Nc3ncc(Cl)c(-c4c[nH]c5ccccc45)n3)C2)cc1` (stereo not drawn), the % of control in [7] amounted to 92%; in assay [8], 95%; in assay [9], 99%.
Regarding `COc1cc(Nc2nc(C)cc(-c3cnn4nc(OC)ccc34)n2)cc(C(F)(F)F)c1`, the % of control in assay [10] came out at 100%.
`CN(C)CCOc1ccc(-c2nc(-c3ccncc3)c(-c3ccc4c(c3)CC/C4=N\O)[nH]2)cc1` had a % of control in [11] of 99%.
For `CCC(=O)N1CCN(c2ccc(-n3c(=O)ccc4cnc5ccc(-c6cnc7ccccc7c6)cc5c43)cc2C(F)(F)F)CC1`, the % of control in assay [12] was determined as 85%.
Compound `CCn1c(-c2nc3cc(C(=O)N4CCCC(N)C4)ccc3n2C)cc2ccccc21` (stereo not drawn) returned a pXC50 in assay [13] of 4.7 M.
In the case of `COc1cc(N(C)c2ccnc3ccc(C(F)(F)F)cc23)cc(OC)c1OC`, in assay [14], the % binding is 84%.
Turning to `C=CC(=O)Nc1ccc(C(=O)Nc2[nH]nc3c2CN(C(=O)N[C@H](CN(C)C)c2ccccc2)C3(C)C)cc1`, the % of engagement in assay [15] was -11.5%.
